Laboratory results as given in patent publication US11046693B2, “Pyrido-phenanthroline derivatives, production and use thereof as medicaments” (Christian-Albrechts-Universitat Zu Kiel, priority 2016, dated 2021).
Where a name gives a salt, the structure may show the parent alone.

How the values were obtained:
[1] = tested on: 60 different human pathogenic tumor cell lines; assay: DTP NCI-60 in vitro human tumor cell line screening (SRB); assay type: cell-based; details: mean growth inhibition of all 60 tumor cell lines, two days exposure
Procedure: For studying the pharmacological properties, the compounds of Examples 1 to 3 were tested under the “DTP NCI-60 in vitro human tumor cell line screening” of the National Cancer Institute (NCI), Bethesda, Md., United States. They were tested against 60 different human pathogenic tumor cell lines which originated from nine types of cancer (leukemia, non-small cell lung cancer, colon cancer, cancer of the CNS, melanoma, ovarian cancer, renal cancer, prostate cancer, breast cancer). To assess efficacy, the tumor cells were exposed to the compounds over two days, then growth inhibition was determined indirectly by determining the protein biomass with sulforhodamine B (SRB). Untreated cultures were used as reference. The mean-graph midpoint (MG_MIDGGI50) corresponds to a mean response rate of all tested human cell lines for the substance tested.

HeLa cells = assay: PARP apoptosis assay (HeLa cells); assay type: cell-based; details: after 8 h, FIG. 3
Procedure: (§1) In addition, exemplary compound 1 was tested for apoptotic activity. The enzyme PARP (poly-ADP ribose polymerase) can be used to determine the apoptotic status of a cell; the enzyme is cleaved into a 89 kDa fragment when the cell transitions into apoptosis and can therefore serve as a apoptosis marker ([…] S H et al, Cancer Research, 1993; 53:3976-3985). […] Etoposide was chosen as reference compound and tested as well.

human topoisomerase IIβ = human topoisomerase IIβ (Homo sapiens, UniProt Q02880); assay: Decatenation assay (kDNA); assay type: biochemical; details: all three enzymes tested; read-out: IC50 topoisomerase IIβ
Sequence of human topoisomerase IIβ (Q02880 whole entry): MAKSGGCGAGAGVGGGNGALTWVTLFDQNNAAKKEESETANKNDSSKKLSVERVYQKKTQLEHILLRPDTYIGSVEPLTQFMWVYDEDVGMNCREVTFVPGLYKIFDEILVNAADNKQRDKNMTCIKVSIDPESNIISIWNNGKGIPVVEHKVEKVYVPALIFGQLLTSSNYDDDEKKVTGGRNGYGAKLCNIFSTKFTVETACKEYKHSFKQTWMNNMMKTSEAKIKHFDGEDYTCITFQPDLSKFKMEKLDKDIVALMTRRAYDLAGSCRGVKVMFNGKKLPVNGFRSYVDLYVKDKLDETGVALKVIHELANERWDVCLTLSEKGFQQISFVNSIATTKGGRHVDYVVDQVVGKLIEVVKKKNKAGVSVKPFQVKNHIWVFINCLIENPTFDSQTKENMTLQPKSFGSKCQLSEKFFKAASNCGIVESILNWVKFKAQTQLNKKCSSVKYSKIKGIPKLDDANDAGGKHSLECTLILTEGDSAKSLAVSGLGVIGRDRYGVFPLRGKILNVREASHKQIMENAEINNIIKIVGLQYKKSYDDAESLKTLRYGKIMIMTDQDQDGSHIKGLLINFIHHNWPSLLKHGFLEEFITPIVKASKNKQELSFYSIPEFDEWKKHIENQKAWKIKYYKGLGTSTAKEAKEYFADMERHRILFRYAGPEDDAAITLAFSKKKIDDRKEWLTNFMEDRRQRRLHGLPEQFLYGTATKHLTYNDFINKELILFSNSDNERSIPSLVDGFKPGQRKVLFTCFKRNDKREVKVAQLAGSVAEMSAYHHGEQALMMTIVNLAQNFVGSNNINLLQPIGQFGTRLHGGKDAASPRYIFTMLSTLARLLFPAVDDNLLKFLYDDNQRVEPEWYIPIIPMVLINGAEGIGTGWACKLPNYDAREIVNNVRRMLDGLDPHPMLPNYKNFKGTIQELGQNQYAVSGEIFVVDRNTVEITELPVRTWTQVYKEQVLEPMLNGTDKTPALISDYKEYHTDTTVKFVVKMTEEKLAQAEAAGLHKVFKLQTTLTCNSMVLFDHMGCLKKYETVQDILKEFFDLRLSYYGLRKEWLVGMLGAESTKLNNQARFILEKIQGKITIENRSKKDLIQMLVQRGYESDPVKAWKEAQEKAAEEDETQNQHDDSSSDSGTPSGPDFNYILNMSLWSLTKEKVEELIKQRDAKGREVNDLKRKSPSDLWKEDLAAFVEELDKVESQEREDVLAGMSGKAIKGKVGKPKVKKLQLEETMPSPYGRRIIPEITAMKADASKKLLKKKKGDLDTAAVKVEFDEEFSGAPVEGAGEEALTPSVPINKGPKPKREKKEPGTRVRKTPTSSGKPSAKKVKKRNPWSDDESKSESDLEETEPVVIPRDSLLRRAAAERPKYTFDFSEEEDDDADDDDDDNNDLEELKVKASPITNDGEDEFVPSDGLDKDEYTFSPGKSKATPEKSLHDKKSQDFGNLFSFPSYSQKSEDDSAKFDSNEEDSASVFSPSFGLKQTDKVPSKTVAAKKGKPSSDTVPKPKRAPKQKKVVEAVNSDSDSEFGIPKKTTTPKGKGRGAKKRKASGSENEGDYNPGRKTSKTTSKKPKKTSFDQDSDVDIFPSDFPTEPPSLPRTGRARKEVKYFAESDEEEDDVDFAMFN
Description: (§2) A decatenation assay was used, which can be used to determine the inhibition of human topoisomerases II (α/β) by a substance. The protein is capable of decatenating kinetoplastid DNA (kDNA), which is present in the form of interlocked minicircles (so-called catenates), i.e. of cleaving it into individual minicircles.

human topoisomerase I = biological target: T1, human topoisomerase I (Homo sapiens, UniProt P11387); assay: Relaxation assay (supercoiled plasmid pUC18); assay type: biochemical
T1 sequence (P11387 1-765): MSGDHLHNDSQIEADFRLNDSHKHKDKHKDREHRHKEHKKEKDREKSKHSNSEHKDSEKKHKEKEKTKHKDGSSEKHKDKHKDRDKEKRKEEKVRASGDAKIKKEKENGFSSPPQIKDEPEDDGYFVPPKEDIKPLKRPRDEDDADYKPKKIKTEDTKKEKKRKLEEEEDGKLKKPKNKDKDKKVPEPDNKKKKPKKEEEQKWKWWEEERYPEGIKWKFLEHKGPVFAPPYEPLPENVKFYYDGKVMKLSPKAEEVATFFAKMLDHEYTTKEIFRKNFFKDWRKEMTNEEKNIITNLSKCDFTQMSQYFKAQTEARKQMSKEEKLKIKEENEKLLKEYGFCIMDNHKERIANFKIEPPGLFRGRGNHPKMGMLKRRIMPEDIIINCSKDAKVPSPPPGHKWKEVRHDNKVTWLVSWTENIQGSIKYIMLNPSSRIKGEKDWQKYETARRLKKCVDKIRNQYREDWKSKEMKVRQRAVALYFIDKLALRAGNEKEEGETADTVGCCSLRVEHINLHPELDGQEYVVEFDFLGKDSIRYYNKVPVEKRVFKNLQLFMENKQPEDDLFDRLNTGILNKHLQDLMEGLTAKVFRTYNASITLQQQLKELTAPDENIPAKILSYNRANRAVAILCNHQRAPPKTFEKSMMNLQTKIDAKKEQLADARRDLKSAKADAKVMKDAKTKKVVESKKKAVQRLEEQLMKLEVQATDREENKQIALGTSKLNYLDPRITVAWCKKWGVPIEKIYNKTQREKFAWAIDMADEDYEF
Description: A relaxation assay can be used to determine the inhibition of human DNA topoisomerase I by a substance. Topo I is capable of transforming the supercoiled plasmid pUC18 into the relaxed form.

logD by HPLC analysis = assay type: physicochemical; details: determined using HPLC analysis
[2] = Tolerability / MTD study, one-time intravenous application; assay type: in vivo, female athymic nude mice
Procedure: The maximum tolerated dose (MTD) was determined as part of an in vivo study of tolerability of P8-D6 in female athymic nude mice.
A total of 18 female athymic nude mice at ages of 7 weeks (groups 1 and 2), 8 weeks (groups 3 and 4), and 9 weeks (groups 5 and 6) were involved in the in vivo study.
To determine the tolerability of P8-D6 for a one-time intravenous application into the tail vein, the study animals of groups 2, 4, and 6 (3 animals per group) were given P8-D6 at doses of 1 mg/kg body weight, 5 mg/kg body weight, and 10 mg/kg body weight on study days 0, 7, and 14, respectively. The control animals of groups 1, 3, and 5 (3 animals per group) were administered PBS (phosphate buffered saline) (pH 7.4) at a dose of 10 mL/kg body weight on the same respective days. The study animals were monitored in a period of up to 14 days for clinical signs, changes in behavior, and survival. The body weight was measured three times a week. The first measurement was on the application day. Criteria for early abortion of the study for ethical reasons were weight loss of more than 20% from the baseline weight. A necropsy was performed on study animals that died during the study and on all other study animals at the end of the study phase. Organ samples were taken from six study animals ([…], 1 animal from group 1, 1 animal from group 2, and one animal from group 6).

human topoisomerase IIα = human topoisomerase IIα (Homo sapiens, UniProt P11388); assay: Decatenation assay (kDNA); assay type: biochemical; details: for inhibition of topo IIα: 10 μM and 100 μM, FIG. 2 lanes 4 and 5
Sequence of human topoisomerase IIα (P11388 whole entry): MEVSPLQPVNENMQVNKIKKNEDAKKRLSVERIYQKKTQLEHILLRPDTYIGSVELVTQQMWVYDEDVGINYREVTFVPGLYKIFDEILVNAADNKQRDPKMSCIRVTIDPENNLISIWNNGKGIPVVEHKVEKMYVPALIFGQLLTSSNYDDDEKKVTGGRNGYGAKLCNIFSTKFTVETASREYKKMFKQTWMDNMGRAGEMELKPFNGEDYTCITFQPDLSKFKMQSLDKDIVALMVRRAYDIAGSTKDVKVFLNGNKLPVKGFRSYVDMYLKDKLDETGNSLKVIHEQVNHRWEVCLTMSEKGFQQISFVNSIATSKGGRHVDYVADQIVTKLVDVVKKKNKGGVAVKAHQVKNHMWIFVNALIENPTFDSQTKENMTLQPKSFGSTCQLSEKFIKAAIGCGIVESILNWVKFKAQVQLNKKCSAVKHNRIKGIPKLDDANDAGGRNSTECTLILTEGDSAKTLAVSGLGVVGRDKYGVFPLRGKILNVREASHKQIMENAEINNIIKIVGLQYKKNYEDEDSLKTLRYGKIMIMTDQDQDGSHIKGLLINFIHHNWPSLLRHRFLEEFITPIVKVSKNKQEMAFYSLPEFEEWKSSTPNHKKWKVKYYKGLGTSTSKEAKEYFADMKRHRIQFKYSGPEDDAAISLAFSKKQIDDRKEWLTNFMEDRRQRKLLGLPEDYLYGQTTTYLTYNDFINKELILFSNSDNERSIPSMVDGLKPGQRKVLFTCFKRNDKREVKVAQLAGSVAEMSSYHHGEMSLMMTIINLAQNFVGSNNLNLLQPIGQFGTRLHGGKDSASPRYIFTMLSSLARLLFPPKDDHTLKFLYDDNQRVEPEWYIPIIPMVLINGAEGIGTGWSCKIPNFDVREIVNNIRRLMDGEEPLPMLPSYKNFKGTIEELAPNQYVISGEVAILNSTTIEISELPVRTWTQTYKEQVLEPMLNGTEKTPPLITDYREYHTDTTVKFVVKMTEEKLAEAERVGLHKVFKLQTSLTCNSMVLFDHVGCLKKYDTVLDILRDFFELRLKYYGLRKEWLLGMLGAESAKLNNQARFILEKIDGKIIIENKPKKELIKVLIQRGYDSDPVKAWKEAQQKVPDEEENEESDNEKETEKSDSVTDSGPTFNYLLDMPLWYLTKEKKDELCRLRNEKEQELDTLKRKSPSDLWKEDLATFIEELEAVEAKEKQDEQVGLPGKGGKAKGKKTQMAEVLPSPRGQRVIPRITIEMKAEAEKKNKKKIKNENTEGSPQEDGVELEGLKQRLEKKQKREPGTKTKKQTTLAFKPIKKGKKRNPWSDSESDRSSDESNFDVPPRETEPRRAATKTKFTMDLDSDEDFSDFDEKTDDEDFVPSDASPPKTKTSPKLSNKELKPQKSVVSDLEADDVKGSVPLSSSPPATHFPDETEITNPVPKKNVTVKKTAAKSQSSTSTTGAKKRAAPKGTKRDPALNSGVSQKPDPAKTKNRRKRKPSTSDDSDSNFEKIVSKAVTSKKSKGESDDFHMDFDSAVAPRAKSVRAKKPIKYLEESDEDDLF
Description: as §2

[3] = tested on: PARP (poly-ADP ribose polymerase) cleavage; assay: PARP assay comparing Example 1 and PZA (FIG. 4); assay type: cell-based
Procedure: as §1
Another PARP assay was performed to obtain a direct comparison of the pro-apoptotic effects of Example 1 (here: P8D 6) and the potent dual topoisomerase I/II inhibitor pyrazoloacridine (PZA) known from literature (FIG. 4).

[4] = Solubility pH 7.4 by HPLC analysis; assay type: physicochemical; details: aqueous buffer; pH 7.4, HPLC analysis
[5] = clinical phase I; cited from earlier work
[6] = tested on: mammary carcinoma, ovarian carcinoma, colon carcinoma, renal cell carcinoma, and non-small cell lung cancer; details: literature; cited from earlier work
[7] = tested on: malignant melanoma, hepatocellular carcinoma, and mesothelioma; details: clinical study, with carboplatin; cited from earlier work
[8] = tested on: pancreatic carcinoma, ovarian carcinoma, and prostate cancer; details: phase II study, at least some cases; cited from earlier work
[9] = tested on: cancer in the head and neck, colon carcinoma, renal carcinoma, and non-small cell lung cancer; details: literature; cited from earlier work
[10] = tested on: colon carcinoma and non-small cell lung cancer; details: in-vivo xenograft; cited from earlier work
[11] = tested on: malignant melanoma, cervical cancer, and cancer of the parotid gland; details: clinical phase I; cited from earlier work

**Q.** With CC[C@@]1(O)C(=O)OCc2c1cc1n(c2=O)Cc2cc3ccccc3nc2-1 [Camptothecin, reference compound] as the compound, how does the GI50 ([1]; Homo sapiens, 48 h) read?
**A.** Its GI50 is 44 nM.

**Q.** Which “concentration at which cleaved PARP (89 kDa band) is visible / apoptosis initiated” value (HeLa cells) does the source give for COc1cc([C@@H]2c3cc4c(cc3[C@@H](O[C@@H]3O[C@@H]5CO[C@@H](C)O[C@H]5[C@H](O)[C@H]3O)[C@H]3COC(=O)[C@H]23)OCO4)cc(OC)c1O [Etoposide, reference compound] here?
**A.** Its value is over 100 µM.

**Q.** And the GI50 ([1]; Homo sapiens, 48 h)?
**A.** The GI50 was 990 nM.

**Q.** For COc1cc(-c2cc3ccncc3c3nc(OCCN(C)C)c4cnccc4c23)cc(OC)c1OC [Example 1, 6-(2-dimethylaminoethoxy)-11-(3,4,5-trimethoxyphenyl)pyrido[3,4-c][1,9]-phenanthroline Hydrochloride], which IC50 (human topoisomerase IIβ) is on record?
**A.** The IC50 was under 10000 nM.

**Q.** And the “concentration at which cleaved PARP (89 kDa band) is visible / apoptosis initiated” value (HeLa cells)?
**A.** Its value is 1 µM.

**Q.** What about the IC50 (human topoisomerase I; all three enzymes tested, read-out: IC50 topoisomerase I) of the same compound?
**A.** Its IC50 is under 10000 nM.

**Q.** And the “inhibition of topoisomerase I activity” value (human topoisomerase I; at 10 μM, FIG. 1)?
**A.** Its value is “almost complete”.

**Q.** And the chromatographic logD (logD by HPLC analysis)?
**A.** The chromatographic logD was 3.7.

**Q.** What about the tolerability ([2]; 1 mg/kg body weight, female athymic nude mice) of the same compound?
**A.** Its tolerability is “good tolerability”.

**Q.** And the “loss of body weight and apathy” value ([2]; 5 mg/kg body weight, female athymic nude mice)?
**A.** The value was “reversible”.

**Q.** What about the “acute lethal side effects” value ([2]; 1, 5 and 10 mg/kg body weight) of the same compound?
**A.** The value was “None”.

**Q.** And the “inhibition of topo IIα” value (human topoisomerase IIα; Hydrochloride)?
**A.** The value was “exemplary inhibition of topo IIα”.

**Q.** And the “inhibition of topo IIα” value (human topoisomerase IIα; listed as exemplary compound 1, Hydrochloride)?
**A.** The value was “potently inhibit topo IIα”.

**Q.** What about the IC50 (human topoisomerase IIα; all three enzymes tested, read-out: IC50 topoisomerase IIα) of the same compound?
**A.** The IC50 was under 10000 nM.

**Q.** What about the GI50 ([1]; Homo sapiens, 48 h) of the same compound?
**A.** Its GI50 is 49 nM.

**Q.** And the “apoptotic effect in PARP assay” value ([3]; FIG. 4, direct comparison with PZA)?
**A.** Its value is “extraordinarily strong apoptotic effect”.

**Q.** And the solubility [4]?
**A.** Its solubility is 0.87 ± 0.03 mM.

**Q.** Which results are given for COc1cc(-c2cc3ccncc3c3nc(OCCCN(C)C)c4cnccc4c23)cc(OC)c1OC [Example 2, 6-(3-dimethylaminopropoxy)-11-(3,4,5-trimethoxyphenyl)pyrido[3,4-c][1,9]-phenanthroline]?
**A.** chromatographic logD (logD by HPLC analysis): 3.6; GI50 ([1]; Homo sapiens, 48 h): 52 nM

**Q.** Which chromatographic logD (logD by HPLC analysis) does the source give for CN(C)CCOc1nc2c(c3ccncc13)C(c1cccc(Cl)c1)Cc1ccncc1-2 (centres unmarked) [Example 3, 11-(3-chlorophenyl)-6-(2-dimethylaminoethoxy)-11,12-dihydropyrido[3,4-c]-[1,9]phenanthroline Hydrochloride] here?
**A.** The chromatographic logD was 3.6.

**Q.** And the GI50 ([1]; Homo sapiens, 48 h)?
**A.** The GI50 was 447 nM.

**Q.** What about the solubility [4] of the same compound?
**A.** The solubility was 5.28 ± 0.09 mM.

**Q.** Which hepatotoxicity [5] does the source give for Cc1cnc(NCCCN(C)C)c2c1[nH]c1ccc3cc(O)ccc3c12 [Intoplicin] here?
**A.** The hepatotoxicity was “dose-limiting”.

**Q.** And the activity against carcinomas [6]?
**A.** The activity against carcinomas was “high activity”.

**Q.** And the GI50 [1]?
**A.** The GI50 was 530 nM.

**Q.** For CCc1c2c(nc3ccc(OC(=O)N4CCC(N5CCCCC5)CC4)cc13)-c1cc3c(c(=O)n1C2)COC(=O)[C@]3(O)CC [Irinotecan], which GI50 ([1]; Homo sapiens, 48 h) is on record?
**A.** Its GI50 is 160 nM.

**Q.** What does the source list for COc1ccc2c(c1)-c1nn(CCCN(C)C)c3ccc([N+](=O)[O-])c(c13)N2 [PZA, pyrazoloacridine]?
**A.** clinical outcome [7]: could not be cured but were stabilized over a few months; clinical outcome [8]: partial remission; GI50 ([1]; Homo sapiens, 48 h): 200 nM; concentration at which effective in PARP assay ([3]; FIG. 4): 100 µM

**Q.** Which efficacy in patients [9] does the source give for CN(C)CCNc1nc2cc(O)ccc2c2c1C(=O)c1ccccc1-2 [TAS-103] here?
**A.** The efficacy in patients was “sufficient to keep patients stable for a period of a few months, but a cure could not be achieved”.

**Q.** With COc1cc([C@@H]2c3cc4c(cc3[C@@H](O[C@@H]3O[C@@H]5CO[C@@H](c6cccs6)O[C@H]5[C@H](O)[C@H]3O)[C@H]3COC(=O)[C@H]23)OCO4)cc(OC)c1O [Teniposide] as the compound, how does the GI50 ([1]; Homo sapiens, 48 h) read?
**A.** Its GI50 is 390 nM.

**Q.** With CC[C@@]1(O)C(=O)OCc2c1cc1n(c2=O)Cc2cc3c(CN(C)C)c(O)ccc3nc2-1 [Topotecan] as the compound, how does the GI50 ([1]; Homo sapiens, 48 h) read?
**A.** The GI50 was 14 nM.

**Q.** Which results are given for COc1cccc2c1ccc1nc3cccc(C(=O)N[C@H](C)CN(C)C)c3nc12 [XR11576]?
**A.** activity in xenograft [10]: high activity; clinical outcome [11]: stabilization, but no remission
